Patent publication US20230364070A1, “PYRROLO[3,2-C]PYRIDIN-4-ONE DERIVATIVES USEFUL IN THE TREATMENT OF CANCER” (Scorpion Therapeutics, Inc., priority 2020, published 2023)

Assays:
Format in all cases: cell-based
Ba/F3 cells with EGFR WT = target: T1, Ba/F3 cells with EGFR WT (Homo sapiens, UniProt P00533); assay: EGFR activity: Ba/F3 cell viability (CellTiter-Glo, 72 h), EGFR WT; conditions: read-out: BaF3 WT IC50
T1 construct: expressed in transfected cells; host or cells: Ba/F3 (murine pro-B cells), retroviral transduction, puromycin selection, maintained with EGF
T1 sequence (P00533 25-1210): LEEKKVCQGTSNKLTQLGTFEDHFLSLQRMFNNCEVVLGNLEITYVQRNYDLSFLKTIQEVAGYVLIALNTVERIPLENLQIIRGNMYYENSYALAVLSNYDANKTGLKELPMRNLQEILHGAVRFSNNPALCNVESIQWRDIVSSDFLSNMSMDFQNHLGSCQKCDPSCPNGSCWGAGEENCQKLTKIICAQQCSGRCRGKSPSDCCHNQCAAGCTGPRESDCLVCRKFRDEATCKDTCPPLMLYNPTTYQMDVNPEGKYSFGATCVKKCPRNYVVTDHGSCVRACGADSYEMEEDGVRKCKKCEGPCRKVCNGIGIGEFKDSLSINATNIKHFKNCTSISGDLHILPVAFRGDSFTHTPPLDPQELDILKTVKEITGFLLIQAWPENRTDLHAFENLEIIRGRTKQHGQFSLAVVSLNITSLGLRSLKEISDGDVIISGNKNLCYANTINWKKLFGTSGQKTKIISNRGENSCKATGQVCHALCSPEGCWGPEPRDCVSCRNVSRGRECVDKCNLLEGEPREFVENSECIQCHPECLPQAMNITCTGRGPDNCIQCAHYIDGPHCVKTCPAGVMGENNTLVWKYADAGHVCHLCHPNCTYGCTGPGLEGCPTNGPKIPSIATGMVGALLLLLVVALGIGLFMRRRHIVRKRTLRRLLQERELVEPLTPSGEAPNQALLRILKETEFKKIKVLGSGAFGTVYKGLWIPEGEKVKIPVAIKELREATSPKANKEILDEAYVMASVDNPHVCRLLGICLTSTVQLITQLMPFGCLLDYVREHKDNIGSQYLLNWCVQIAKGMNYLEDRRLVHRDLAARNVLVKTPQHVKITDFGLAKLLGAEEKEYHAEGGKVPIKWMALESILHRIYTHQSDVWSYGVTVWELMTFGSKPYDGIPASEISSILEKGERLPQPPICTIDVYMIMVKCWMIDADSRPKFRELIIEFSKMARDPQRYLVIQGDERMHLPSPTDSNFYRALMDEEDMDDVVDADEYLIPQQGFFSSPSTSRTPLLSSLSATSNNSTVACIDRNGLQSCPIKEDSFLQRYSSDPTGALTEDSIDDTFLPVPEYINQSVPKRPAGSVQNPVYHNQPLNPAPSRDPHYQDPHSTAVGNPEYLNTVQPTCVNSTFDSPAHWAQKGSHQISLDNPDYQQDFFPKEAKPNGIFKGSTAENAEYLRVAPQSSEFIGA

[1] = target: T2, Ba/F3 cells with EGFR exon 20 NPG Ins D770_N771 (Homo sapiens, UniProt P00533, INS770NPG); assay: EGFR activity: Ba/F3 cell viability (CellTiter-Glo, 72 h), EGFR exon 20 NPG insertion; conditions: EGFR exon 20 NPG Ins D770_N771, cell viability, read-out: BaF3 NPG IC50
T2 construct: expressed in transfected cells; host or cells: Ba/F3 (murine pro-B cells), retroviral transduction, puromycin selection, IL3-independent pool
T2 sequence (P00533 with tags, fused parts or gaps INS770NPG): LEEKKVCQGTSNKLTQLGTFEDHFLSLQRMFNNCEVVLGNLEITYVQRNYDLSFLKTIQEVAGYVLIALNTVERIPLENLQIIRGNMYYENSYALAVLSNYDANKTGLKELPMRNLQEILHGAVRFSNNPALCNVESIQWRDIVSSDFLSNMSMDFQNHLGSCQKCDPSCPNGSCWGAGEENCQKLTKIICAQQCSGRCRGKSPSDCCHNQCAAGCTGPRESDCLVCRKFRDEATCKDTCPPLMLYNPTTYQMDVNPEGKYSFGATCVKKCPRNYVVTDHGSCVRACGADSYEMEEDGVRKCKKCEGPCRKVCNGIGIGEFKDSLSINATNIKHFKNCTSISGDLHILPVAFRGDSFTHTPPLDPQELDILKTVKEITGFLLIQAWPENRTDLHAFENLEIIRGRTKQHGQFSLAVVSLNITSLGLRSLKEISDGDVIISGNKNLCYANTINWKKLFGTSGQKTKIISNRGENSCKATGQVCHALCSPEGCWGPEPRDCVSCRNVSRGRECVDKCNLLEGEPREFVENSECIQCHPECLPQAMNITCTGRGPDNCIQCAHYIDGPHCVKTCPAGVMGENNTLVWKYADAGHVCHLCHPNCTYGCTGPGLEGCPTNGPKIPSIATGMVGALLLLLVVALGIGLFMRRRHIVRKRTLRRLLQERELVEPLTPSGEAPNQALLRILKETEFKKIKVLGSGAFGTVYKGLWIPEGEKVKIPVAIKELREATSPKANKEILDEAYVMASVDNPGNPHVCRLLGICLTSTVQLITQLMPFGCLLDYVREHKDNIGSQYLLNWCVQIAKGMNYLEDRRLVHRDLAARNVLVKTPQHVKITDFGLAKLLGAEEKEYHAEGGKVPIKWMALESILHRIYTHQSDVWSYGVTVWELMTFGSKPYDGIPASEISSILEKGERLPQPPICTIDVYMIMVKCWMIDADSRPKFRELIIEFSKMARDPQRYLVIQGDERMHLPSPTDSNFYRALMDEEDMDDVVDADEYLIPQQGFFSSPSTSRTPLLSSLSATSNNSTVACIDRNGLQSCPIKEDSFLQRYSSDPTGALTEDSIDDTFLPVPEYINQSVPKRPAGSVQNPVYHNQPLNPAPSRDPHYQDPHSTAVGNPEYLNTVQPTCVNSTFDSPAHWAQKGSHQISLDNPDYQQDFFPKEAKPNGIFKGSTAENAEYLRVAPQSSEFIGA

[2] = target: T3, Ba/F3 cells with EGFR exon 20 ASV Ins V769_D770 (Homo sapiens, UniProt P00533, INS769ASV); assay: EGFR activity: Ba/F3 cell viability (CellTiter-Glo, 72 h), EGFR exon 20 ASV insertion; conditions: EGFR exon 20 ASV Ins V769_D770, cell viability, read-out: BaF3 ASV IC50
T3 construct: expressed in transfected cells; host or cells: Ba/F3 (murine pro-B cells), retroviral transduction, puromycin selection, IL3-independent pool
T3 sequence (P00533 with tags, fused parts or gaps INS769ASV): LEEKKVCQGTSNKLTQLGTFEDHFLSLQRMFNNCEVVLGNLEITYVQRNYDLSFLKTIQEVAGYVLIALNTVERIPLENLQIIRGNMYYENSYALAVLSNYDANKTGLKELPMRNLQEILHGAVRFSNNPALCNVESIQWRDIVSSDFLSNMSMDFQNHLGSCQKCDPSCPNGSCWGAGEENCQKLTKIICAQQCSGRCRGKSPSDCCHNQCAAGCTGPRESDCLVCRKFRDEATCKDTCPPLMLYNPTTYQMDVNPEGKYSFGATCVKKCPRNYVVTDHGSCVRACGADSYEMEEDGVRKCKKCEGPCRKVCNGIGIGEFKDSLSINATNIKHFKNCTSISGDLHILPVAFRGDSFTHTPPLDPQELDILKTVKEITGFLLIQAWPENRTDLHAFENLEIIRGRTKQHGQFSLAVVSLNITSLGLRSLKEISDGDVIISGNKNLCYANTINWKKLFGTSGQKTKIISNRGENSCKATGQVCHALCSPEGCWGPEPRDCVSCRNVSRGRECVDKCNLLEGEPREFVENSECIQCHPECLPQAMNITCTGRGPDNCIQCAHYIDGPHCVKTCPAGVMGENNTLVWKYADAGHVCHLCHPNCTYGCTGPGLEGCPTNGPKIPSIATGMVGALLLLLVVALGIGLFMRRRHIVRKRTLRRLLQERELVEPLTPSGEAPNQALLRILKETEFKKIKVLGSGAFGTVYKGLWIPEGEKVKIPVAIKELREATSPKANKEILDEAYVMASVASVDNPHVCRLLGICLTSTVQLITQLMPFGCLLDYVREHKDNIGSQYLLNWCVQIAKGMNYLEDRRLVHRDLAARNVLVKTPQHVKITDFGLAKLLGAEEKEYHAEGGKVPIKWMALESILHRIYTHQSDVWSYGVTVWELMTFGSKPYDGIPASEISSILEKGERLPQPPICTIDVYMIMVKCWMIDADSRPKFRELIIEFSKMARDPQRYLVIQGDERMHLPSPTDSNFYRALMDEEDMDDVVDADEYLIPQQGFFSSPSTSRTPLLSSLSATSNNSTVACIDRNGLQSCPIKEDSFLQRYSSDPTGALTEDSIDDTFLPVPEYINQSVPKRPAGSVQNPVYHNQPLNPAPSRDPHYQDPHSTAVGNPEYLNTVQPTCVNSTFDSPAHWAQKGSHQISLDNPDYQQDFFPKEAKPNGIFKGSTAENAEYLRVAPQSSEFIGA

pEGFR in CUTO14 cells = target: T4, pEGFR in CUTO14 cells (Homo sapiens, UniProt P00533, DUP767-769); assay: Inhibitor activity on EGFR phosphorylation (pEGFR AlphaLISA, 2 h), CUTO14 cells
T4 construct: endogenous in cells; host or cells: CUTO14 cells
T4 sequence (P00533 with tags, fused parts or gaps DUP767-769): as the sequence (P00533 with tags, fused parts or gaps INS769ASV) above
Method: CUTO14 cells were obtained from Dr. Robert C. Doebele at the University of Colorado.
Shake 350 rpm for 1 hr in the dark • 3.4 Prepare donor mix under low light conditions prior to use. Dispense 5 μL of donor mix to all the wells. Mix well on the shaker, seal and wrap in aluminum foil and incubate 1.5 hrs at room temperature in the dark • 3.5 Transfer 18.5 μL mixture to OptiPlate 384, and read using an Envision.

COc1c(F)cccc1Nc1c(-c2ccncc2C#C[C@@]2(C)CCCN2C(=O)/C=C/CN2CC(F)(F)C2)[nH]c2c1C(=O)NCC2 [compound 445]
IC50 (Ba/F3 cells with EGFR WT): > 1000 nM | IC50 [1]: 100 to 1000 nM | IC50 [2]: 100 to 1000 nM | IC50 (pEGFR in CUTO14 cells): 100 to 1000 nM

CC#CC(=O)N1CC[C@@H]1COc1cnccc1-c1[nH]c2c(c1Nc1cccc(C(F)F)c1OC)C(=O)NCC2 [compound 446]
IC50 (Ba/F3 cells with EGFR WT): 100 to 1000 nM | IC50 [1]: < 100 nM | IC50 [2]: < 100 nM | IC50 (pEGFR in CUTO14 cells): < 100 nM

C#CC(=O)N1CC[C@@H]1COc1cnccc1-c1[nH]c2c(c1Nc1cccc(Cl)c1OC)C(=O)NCC2 [compound 447]
IC50 (Ba/F3 cells with EGFR WT): 100 to 1000 nM | IC50 [1]: < 100 nM | IC50 [2]: < 100 nM | IC50 (pEGFR in CUTO14 cells): < 100 nM

C=CC(=O)NC(C)(C)COc1cnccc1-c1[nH]c2c(c1Nc1cccc(Cl)c1OC)C(=O)NCC2 [compound 448]
IC50 (Ba/F3 cells with EGFR WT): 100 to 1000 nM | IC50 [1]: < 100 nM | IC50 [2]: < 100 nM | IC50 (pEGFR in CUTO14 cells): < 100 nM

Cc1c(F)cccc1Nc1c(-c2ccncc2C#CC(C)(C)NC(=O)/C=C/CN(C)C)[nH]c2c1C(=O)NCC2 [compound 449]
IC50 (Ba/F3 cells with EGFR WT): 100 to 1000 nM | IC50 [1]: < 100 nM | IC50 [2]: < 100 nM | IC50 (pEGFR in CUTO14 cells): < 100 nM

Cc1c(F)cccc1Nc1c(-c2ccncc2C#C[C@@]2(C)CCCN2C(=O)/C=C/CN(C)C)[nH]c2c1C(=O)NCC2 [compound 450]
IC50 (Ba/F3 cells with EGFR WT): 100 to 1000 nM | IC50 [1]: < 100 nM | IC50 [2]: < 100 nM | IC50 (pEGFR in CUTO14 cells): < 100 nM

Cc1c(F)cccc1Nc1c(-c2ccncc2C#CC23CC(CN2C(=O)/C=C/CN(C)C)C3)[nH]c2c1C(=O)NCC2 [compound 451]
IC50 (Ba/F3 cells with EGFR WT): 100 to 1000 nM | IC50 [1]: < 100 nM | IC50 [2]: < 100 nM | IC50 (pEGFR in CUTO14 cells): < 100 nM

C=CC(=O)N1CC2CC1(C#Cc1cnccc1-c1[nH]c3c(c1Nc1cccc(F)c1C)C(=O)NCC3)C2 [compound 452]
IC50 (Ba/F3 cells with EGFR WT): 100 to 1000 nM | IC50 [1]: < 100 nM | IC50 [2]: < 100 nM | IC50 (pEGFR in CUTO14 cells): < 100 nM

CCc1c(F)cccc1Nc1c(-c2ccncc2C#CC(C)(C)NC(=O)/C=C/CN(C)C)[nH]c2c1C(=O)NCC2 [compound 453]
IC50 (Ba/F3 cells with EGFR WT): 100 to 1000 nM | IC50 [1]: < 100 nM | IC50 [2]: < 100 nM | IC50 (pEGFR in CUTO14 cells): < 100 nM

COc1c(Cl)cccc1Nc1c(-c2ccncc2C#C[C@H]2CCN2C(=O)/C=C/CN(C)C)[nH]c2c1C(=O)NCC2 [compound 456]
IC50 (Ba/F3 cells with EGFR WT): 100 to 1000 nM | IC50 [1]: < 100 nM | IC50 [2]: < 100 nM | IC50 (pEGFR in CUTO14 cells): < 100 nM

COc1c(Cl)cccc1Nc1c(-c2ccncc2C#C[C@@H]2CCN2C(=O)/C=C/CN(C)C)[nH]c2c1C(=O)NCC2 [compound 457]
IC50 (Ba/F3 cells with EGFR WT): < 100 nM | IC50 [1]: < 100 nM | IC50 [2]: < 100 nM | IC50 (pEGFR in CUTO14 cells): < 100 nM

COc1c(F)cccc1Nc1c(-c2ccncc2C#CC2(C)CCN2C(=O)/C=C/CN(C)C)[nH]c2c1C(=O)NCC2 (centres unmarked) [compound 462]
IC50 (Ba/F3 cells with EGFR WT): > 1000 nM | IC50 [1]: > 1000 nM | IC50 [2]: > 1000 nM | IC50 (pEGFR in CUTO14 cells): > 1000 nM

COc1c(F)cccc1Nc1c(-c2ccncc2C#CC(C)(C)NC(=O)/C=C/CN2CC(F)C2)[nH]c2c1C(=O)NCC2 [compound 463]
IC50 (Ba/F3 cells with EGFR WT): > 1000 nM | IC50 [1]: < 100 nM | IC50 [2]: 100 to 1000 nM | IC50 (pEGFR in CUTO14 cells): < 100 nM

COc1c(F)cccc1Nc1c(-c2ccncc2C#CC(C)(C)NC(=O)/C=C/CN2CCN(C)CC2)[nH]c2c1C(=O)NCC2 [compound 464]
IC50 (Ba/F3 cells with EGFR WT): > 1000 nM | IC50 [1]: > 1000 nM | IC50 [2]: > 1000 nM | IC50 (pEGFR in CUTO14 cells): 100 to 1000 nM

COc1c(F)cccc1Nc1c(-c2ccncc2C#CC(C)(C)NC(=O)C#CCN(C)C)[nH]c2c1C(=O)NCC2 [compound 465]
IC50 (Ba/F3 cells with EGFR WT): 100 to 1000 nM | IC50 [1]: < 100 nM | IC50 [2]: < 100 nM | IC50 (pEGFR in CUTO14 cells): < 100 nM

C=CC(=O)N1CCN(C)C[C@@H]1COc1cnccc1-c1[nH]c2c(c1Nc1cccc(Cl)c1OC)C(=O)NCC2 [compound 565]
IC50 (Ba/F3 cells with EGFR WT): > 1000 nM | IC50 [1]: 100 to 1000 nM | IC50 [2]: 100 to 1000 nM | IC50 (pEGFR in CUTO14 cells): 100 to 1000 nM

C=CC(=O)N1CCN(C)C[C@@H]1COc1cnccc1-c1[nH]c2c(c1Nc1cccc(F)c1OC)C(=O)NCC2 [compound 566]
IC50 (Ba/F3 cells with EGFR WT): > 1000 nM | IC50 [1]: 100 to 1000 nM | IC50 [2]: > 1000 nM | IC50 (pEGFR in CUTO14 cells): > 1000 nM

C=C(F)C(=O)N1CC[C@@H]1COc1cnccc1-c1[nH]c2c(c1Nc1cccc(F)c1C)C(=O)NCC2 [compound 567]
IC50 (Ba/F3 cells with EGFR WT): 100 to 1000 nM | IC50 [1]: < 100 nM | IC50 [2]: 100 to 1000 nM | IC50 (pEGFR in CUTO14 cells): < 100 nM

C=CC(=O)N1CCN(C)C[C@H]1COc1cnccc1-c1[nH]c2c(c1Nc1cccc(Cl)c1OC)C(=O)NCC2 [compound 568]
IC50 (Ba/F3 cells with EGFR WT): 100 to 1000 nM | IC50 [1]: < 100 nM | IC50 [2]: < 100 nM | IC50 (pEGFR in CUTO14 cells): < 100 nM

C=CC(=O)N1CCN(C)C[C@H]1COc1cnccc1-c1[nH]c2c(c1Nc1cccc(F)c1OC)C(=O)NCC2 [compound 569]
IC50 (Ba/F3 cells with EGFR WT): 100 to 1000 nM | IC50 [1]: < 100 nM | IC50 [2]: < 100 nM | IC50 (pEGFR in CUTO14 cells): < 100 nM
